# Reference: paper PMC9706563, “Development of Macrocyclic PRMT5–Adaptor Protein Interaction Inhibitors” (Journal of Medicinal Chemistry, 2022)
# Square brackets hold non-standard residues; d marks the D form. Peptide text beside a SMILES is read from it. * marks the point of attachment. FITC = O=C1OC2(c3ccc(O)cc3Oc3cc(O)ccc32)c2ccc(NC(=S)*)cc21; Phe(F5) = N[C@@H](Cc1c(F)c(F)c(F)c(F)c1F)C(=O)O; Phe(2-F) = N[C@@H](Cc1ccccc1F)C(=O)O; Phe(2-I) = N[C@@H](Cc1ccccc1I)C(=O)O; hPhe = N[C@@H](CCc1ccccc1)C(=O)O; Cit = NC(=O)NCCC[C@H](N)C(=O)O; NMeV = CN[C@H](C(=O)O)C(C)C; Dab = NCC[C@H](N)C(=O)O; Alloc = C=CCOC(=O)*; Sar = CNCC(=O)O
# Target: T1, PRMT5-MEP50 (Homo sapiens, UniProt O14744)
# T1 construct: The compounds were tested by means of FP with the full-length PRMT5-MEP50 complex; made in house
# T1 sequence (O14744 whole entry): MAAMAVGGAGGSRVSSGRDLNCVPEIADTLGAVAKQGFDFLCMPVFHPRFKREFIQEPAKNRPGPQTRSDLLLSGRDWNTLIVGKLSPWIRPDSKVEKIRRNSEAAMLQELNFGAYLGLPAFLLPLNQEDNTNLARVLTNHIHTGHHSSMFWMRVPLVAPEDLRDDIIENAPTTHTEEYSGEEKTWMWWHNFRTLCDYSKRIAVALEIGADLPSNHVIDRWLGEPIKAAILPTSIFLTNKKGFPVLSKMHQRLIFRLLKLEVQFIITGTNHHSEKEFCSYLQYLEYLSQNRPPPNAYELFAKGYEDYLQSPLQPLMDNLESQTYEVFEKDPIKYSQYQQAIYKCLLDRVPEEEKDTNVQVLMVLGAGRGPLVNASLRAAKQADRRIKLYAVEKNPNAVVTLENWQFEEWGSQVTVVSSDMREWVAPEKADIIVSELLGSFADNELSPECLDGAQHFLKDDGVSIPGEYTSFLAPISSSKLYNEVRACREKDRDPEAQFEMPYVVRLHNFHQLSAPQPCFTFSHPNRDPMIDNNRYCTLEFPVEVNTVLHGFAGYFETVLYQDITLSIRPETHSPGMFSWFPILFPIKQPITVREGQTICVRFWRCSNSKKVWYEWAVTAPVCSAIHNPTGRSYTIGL
# T1 sequence (Q9BQA1 whole entry partner): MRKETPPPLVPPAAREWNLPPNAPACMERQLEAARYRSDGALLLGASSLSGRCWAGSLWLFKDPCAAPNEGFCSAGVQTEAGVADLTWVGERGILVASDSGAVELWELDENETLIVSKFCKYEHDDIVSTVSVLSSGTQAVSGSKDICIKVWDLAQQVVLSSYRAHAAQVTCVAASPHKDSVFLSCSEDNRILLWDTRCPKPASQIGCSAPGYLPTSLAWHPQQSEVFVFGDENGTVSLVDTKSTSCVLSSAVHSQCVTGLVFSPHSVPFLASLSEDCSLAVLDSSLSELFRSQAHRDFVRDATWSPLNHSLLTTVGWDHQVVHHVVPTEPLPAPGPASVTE
# Test: Direct binding fluorescence polarization (FP) assay of FITC-labeled peptides
# Conditions: FITC-labeled peptide 1 nM, PRMT5-MEP50 titrated, read-out: KD
# Method: The assay was performed in a buffer of 50 mM 4-(2-hydroxyethyl)-1-piperazineethanesulfonic acid (HEPES), 250 mM NaCl, 1 mM tris(2-carboxyethyl)phosphine (TCEP), and 0.01% (v/v) Tween 20, pH 8.0, in black, 384-well plates with a total volume of 10 μL per well. […] The plates were incubated at room temperature for 1 to 2 h and analyzed on a plate reader using 485 nm excitation and 535 nm emission wavelength. The assay was performed in triplicate.
row,SMILES,Kd
1,CC(=O)N[C@H](C(=O)N1CCC[C@H]1C(=O)N[C@@H]1CCCCC[C@@H](C(=O)N[C@@H](CC(=O)O)C(=O)N[C@@H](C)C(=O)N[C@@H](CC(C(=O)O)C(=O)O)C(=O)N[C@@H](CCCCNC(=S)Nc2ccc3c(c2)C(=O)OC32c3ccc(O)cc3Oc3cc(O)ccc32)C(N)=O)NC(=O)[C@H](Cc2ccc([N+](=O)[O-])cc2)NC(=O)[C@H](CCC(N)=O)NC1=O)C(C)C [Compound 50],89 ± 11 nM

# Same assay, conditions: supplementary CSV, read-out: PRMT5-MEP50 Kd
row,SMILES,Kd
1,"CC(=O)N[C@H](C(=O)N1CCC[C@H]1C(=O)N(C)CC(=O)N[C@@H](CCC(N)=O)C(=O)N[C@@H](Cc1ccccc1)C(=O)N[C@@H](CC(=O)O)C(=O)N[C@@H](CC(=O)O)C(=O)N[C@@H](C)C(=O)N[C@@H](CC(=O)O)C(=O)N[C@@H](CCCCNC(=S)Nc1ccc2c(c1)C(=O)OC21c2ccc(O)cc2Oc2cc(O)ccc21)C(N)=O)C(C)C [Compound 48, Ac-VP-(N-Me)G-QFDDADK(Fitc)-NH2] (Ac-VP[Sar]QFDDADK(FITC)-NH2)",> 2000 nM
2,CC(=O)N(C)[C@H](C(=O)N1CCC[C@H]1C(=O)NCC(=O)N[C@@H](CCC(N)=O)C(=O)N[C@@H](Cc1ccccc1)C(=O)N[C@@H](CC(=O)O)C(=O)N[C@@H](CC(=O)O)C(=O)N[C@@H](C)C(=O)N[C@@H](CC(=O)O)C(=O)N[C@@H](CCCCNC(=S)Nc1ccc2c(c1)C(=O)OC21c2ccc(O)cc2Oc2cc(O)ccc21)C(N)=O)C(C)C [Compound 49] (Ac-[NMeV]PGQFDDADK(FITC)-NH2),> 2000 nM
3,CC(=O)N[C@@H](Cc1ccc(O)cc1)C(=O)N1CCC[C@H]1C(=O)NCC(=O)N[C@@H](CCC(N)=O)C(=O)N[C@@H](Cc1ccccc1)C(=O)N[C@@H](CC(=O)O)C(=O)N[C@@H](CC(=O)O)C(=O)N[C@@H](C)C(=O)N[C@@H](CC(=O)O)C(=O)N[C@@H](CCCCNC(=S)Nc1ccc2c(c1)C(=O)OC21c2ccc(O)cc2Oc2cc(O)ccc21)C(N)=O [Compound S2] (Ac-YPGQFDDADK(FITC)-NH2),> 1000 nM
4,CC(=O)N[C@@H](Cc1c[nH]c2ccccc12)C(=O)N1CCC[C@H]1C(=O)NCC(=O)N[C@@H](CCC(N)=O)C(=O)N[C@@H](Cc1ccccc1)C(=O)N[C@@H](CC(=O)O)C(=O)N[C@@H](CC(=O)O)C(=O)N[C@@H](C)C(=O)N[C@@H](CC(=O)O)C(=O)N[C@@H](CCCCNC(=S)Nc1ccc2c(c1)C(=O)OC21c2ccc(O)cc2Oc2cc(O)ccc21)C(N)=O [Compound S5] (Ac-WPGQFDDADK(FITC)-NH2),> 1000 nM
5,CC(=O)N[C@@H](CC(=O)O)C(=O)N1CCC[C@H]1C(=O)NCC(=O)N[C@@H](CCC(N)=O)C(=O)N[C@@H](Cc1ccccc1)C(=O)N[C@@H](CC(=O)O)C(=O)N[C@@H](CC(=O)O)C(=O)N[C@@H](C)C(=O)N[C@@H](CC(=O)O)C(=O)N[C@@H](CCCCNC(=S)Nc1ccc2c(c1)C(=O)OC21c2ccc(O)cc2Oc2cc(O)ccc21)C(N)=O [Compound S6] (Ac-DPGQFDDADK(FITC)-NH2),> 1000 nM
6,CC(=O)N[C@@H](CCC(=O)O)C(=O)N1CCC[C@H]1C(=O)NCC(=O)N[C@@H](CCC(N)=O)C(=O)N[C@@H](Cc1ccccc1)C(=O)N[C@@H](CC(=O)O)C(=O)N[C@@H](CC(=O)O)C(=O)N[C@@H](C)C(=O)N[C@@H](CC(=O)O)C(=O)N[C@@H](CCCCNC(=S)Nc1ccc2c(c1)C(=O)OC21c2ccc(O)cc2Oc2cc(O)ccc21)C(N)=O [Compound S7] (Ac-EPGQFDDADK(FITC)-NH2),695 ± 78 nM
7,CC(=O)N[C@H](C(=O)N1CCC[C@H]1C(=O)NCC(=O)N[C@@H](CC(N)=O)C(=O)N[C@@H](Cc1ccccc1)C(=O)N[C@@H](CC(=O)O)C(=O)N[C@@H](CC(=O)O)C(=O)N[C@@H](C)C(=O)N[C@@H](CC(=O)O)C(=O)N[C@@H](CCCCNC(=S)Nc1ccc2c(c1)C(=O)OC21c2ccc(O)cc2Oc2cc(O)ccc21)C(N)=O)C(C)C [Compound S8] (Ac-VPGNFDDADK(FITC)-NH2),> 1000 nM
8,C=CCOC(=O)NCC[C@H](NC(=O)CNC(=O)[C@@H]1CCCN1C(=O)[C@@H](NC(C)=O)C(C)C)C(=O)N[C@@H](Cc1ccccc1)C(=O)N[C@@H](CC(=O)O)C(=O)N[C@@H](CC(=O)O)C(=O)N[C@@H](C)C(=O)N[C@@H](CC(=O)O)C(=O)N[C@@H](CCCCNC(=S)Nc1ccc2c(c1)C(=O)OC21c2ccc(O)cc2Oc2cc(O)ccc21)C(N)=O [Compound S10] (Ac-VPG[Dab](Alloc)FDDADK(FITC)-NH2),> 1000 nM
9,CC(=O)N[C@H](C(=O)N1CCC[C@H]1C(=O)NCC(=O)N[C@@H](CCC(N)=O)C(=O)N[C@@H](Cc1c(F)c(F)c(F)c(F)c1F)C(=O)N[C@@H](CC(=O)O)C(=O)N[C@@H](CC(=O)O)C(=O)N[C@@H](C)C(=O)N[C@@H](CC(=O)O)C(=O)N[C@@H](CCCCNC(=S)Nc1ccc2c(c1)C(=O)OC21c2ccc(O)cc2Oc2cc(O)ccc21)C(N)=O)C(C)C [Compound S13] (Ac-VPGQ[Phe(F5)]DDADK(FITC)-NH2),> 1000 nM
10,CC(=O)N[C@H](C(=O)N1CCC[C@H]1C(=O)NCC(=O)N[C@@H](CCC(N)=O)C(=O)N[C@@H](Cc1ccccc1I)C(=O)N[C@@H](CC(=O)O)C(=O)N[C@@H](CC(=O)O)C(=O)N[C@@H](C)C(=O)N[C@@H](CC(=O)O)C(=O)N[C@@H](CCCCNC(=S)Nc1ccc2c(c1)C(=O)OC21c2ccc(O)cc2Oc2cc(O)ccc21)C(N)=O)C(C)C [Compound S14] (Ac-VPGQ[Phe(2-I)]DDADK(FITC)-NH2),> 1000 nM

# Second part, the compound after the results:
row,Kd,SMILES
1,> 1000 nM,CC(=O)N[C@@H](Cc1ccccc1)C(=O)N1CCC[C@H]1C(=O)NCC(=O)N[C@@H](CCC(N)=O)C(=O)N[C@@H](Cc1ccccc1)C(=O)N[C@@H](CC(=O)O)C(=O)N[C@@H](CC(=O)O)C(=O)N[C@@H](C)C(=O)N[C@@H](CC(=O)O)C(=O)N[C@@H](CCCCNC(=S)Nc1ccc2c(c1)C(=O)OC21c2ccc(O)cc2Oc2cc(O)ccc21)C(N)=O [Compound S3] (Ac-FPGQFDDADK(FITC)-NH2)
2,> 1000 nM,CC(=O)N[C@@H](CCc1ccccc1)C(=O)N1CCC[C@H]1C(=O)NCC(=O)N[C@@H](CCC(N)=O)C(=O)N[C@@H](Cc1ccccc1)C(=O)N[C@@H](CC(=O)O)C(=O)N[C@@H](CC(=O)O)C(=O)N[C@@H](C)C(=O)N[C@@H](CC(=O)O)C(=O)N[C@@H](CCCCNC(=S)Nc1ccc2c(c1)C(=O)OC21c2ccc(O)cc2Oc2cc(O)ccc21)C(N)=O [Compound S4] (Ac-[hPhe]PGQFDDADK(FITC)-NH2)
3,> 1000 nM,CC(=O)N[C@H](C(=O)N1CCC[C@H]1C(=O)NCC(=O)N[C@@H](CCN)C(=O)N[C@@H](Cc1ccccc1)C(=O)N[C@@H](CC(=O)O)C(=O)N[C@@H](CC(=O)O)C(=O)N[C@@H](C)C(=O)N[C@@H](CC(=O)O)C(=O)N[C@@H](CCCCNC(=S)Nc1ccc2c(c1)C(=O)OC21c2ccc(O)cc2Oc2cc(O)ccc21)C(N)=O)C(C)C [Compound S9] (Ac-VPG[Dab]FDDADK(FITC)-NH2)
4,> 1000 nM,CC(=O)N[C@H](C(=O)N1CCC[C@H]1C(=O)NCC(=O)N[C@@H](CCCNC(N)=O)C(=O)N[C@@H](Cc1ccccc1)C(=O)N[C@@H](CC(=O)O)C(=O)N[C@@H](CC(=O)O)C(=O)N[C@@H](C)C(=O)N[C@@H](CC(=O)O)C(=O)N[C@@H](CCCCNC(=S)Nc1ccc2c(c1)C(=O)OC21c2ccc(O)cc2Oc2cc(O)ccc21)C(N)=O)C(C)C [Compound S11] (Ac-VPG[Cit]FDDADK(FITC)-NH2)
5,> 1000 nM,CC(=O)N[C@H](C(=O)N1CCC[C@H]1C(=O)NCC(=O)N[C@@H](CCC(N)=O)C(=O)N[C@@H](Cc1ccccc1F)C(=O)N[C@@H](CC(=O)O)C(=O)N[C@@H](CC(=O)O)C(=O)N[C@@H](C)C(=O)N[C@@H](CC(=O)O)C(=O)N[C@@H](CCCCNC(=S)Nc1ccc2c(c1)C(=O)OC21c2ccc(O)cc2Oc2cc(O)ccc21)C(N)=O)C(C)C [Compound S12] (Ac-VPGQ[Phe(2-F)]DDADK(FITC)-NH2)
